Measured values published in US4636520A, “Antifungal composition employing pyrrolnitrin in combination with an imidazole compound” (Fujisawa Pharmaceutical Co., Ltd., priority 1984, dated 1987).
Converted amounts (≈) assume the structure as drawn. Read-outs that look alike come from different tables or passages of the source.

Columns and labels:
Type in all cases: cell-based
Candida albicans FP580 [1] = experiment: Antimicrobial test 2 (agar plate MIC), organism d
Description: (§1) Pyrrolnitrin (PY) alone, clotrimazole (CL) alone, miconazole alone, econazole alone, oxyconazole alone and 1:1 mixtures of PY and CL, PY and miconazole, PY and econazole and PY and oxyconazole were test for antimicrobial activity in various strains of microorganisms.
(§2) d: Candida albicans FP580
(§3) Compositions A was prepared as stated above.
(§4) Composition F, G and H: A milk-white suspension containing 10 mg of miconazole (Composition F), a transparent solution containing 10 mg of econazole (Composition G) and a milk-white suspension containing 10 mg of oxyconazole (Composition H) were respectively prepared in a similar way to that of Composition B.
(§5) Composition I: The above-mentioned Compositions A and F were mixed together in a volume ratio of 1:1 to give a suspension.
(§6) Composition J: The above-mentioned Compositions A and G were mixed together in a volume ratio of 1:1 to give a suspension.
(§7) Composition K: The above-mentioned Compositions A and H were mixed together in a volume ratio of 1:1 to give a suspension.
(§8) Plates with varied active ingredient concentrations were prepared by admixing each of Compositions A and F to K prepared in the above manner with Sabouraud agar medium, followed by appropriate dilution with the medium. These plates were inoculated respectively with each of the test organisms a and d and incubated at 30° C. for 48 hours. The minimum inhibitory concentration (MIC; μg/ml) at which the growth of each test organism is inhibited was determined.
(§9) The FIC indexes given in the parentheses of Tables 1 and 2 were calculated by using the following formulas. [formula]

Candida albicans Yu-1200 [2] = experiment: Antimicrobial test 2 (agar plate MIC), organism a
Description: as §1
(§10) a: Candida albicans Yu-1200
as §3, §4, §5, §6, §7, §8, §9

Candida albicans FP579 = experiment: Antimicrobial test 1 (agar plate MIC), organism c
Description: (§11) Pyrrolnitrin (PY) alone, clotrimazole (CL) alone, a 2:1 mixture of PY and CL, a 1:1 mixture of PY and CL and 1:2 mixture of PY and CL were tested for antimicrobial activity in various strains of microorganisms.
c: Candida albicans FP579
(§12) Composition A: PY (10 mg) was dissolved in 1 ml of ethanol, and the solution is mixed with 9 ml of sterilized water to give a milk-white suspension.
(§13) Composition B: CL (10 mg) was dissolved in 1 ml of N,N-dimethylformamide, and the solution was mixed with 9 ml of sterilized water to give a milk-white suspension.
(§14) Composition C: The above Compositions A and B were mixed together in a volume ratio of 2:1 to give a suspension. […]
as §8, with “A-E” for “A and F to K”, “medium (for test organisms a-f) or Mueller-Hinton medium (for test organism g),” for “medium,”, “a-g” for “a and d”, “under the conditions given below, and the” for “at 30° C. for 48 hours. The”, “determined. […]” for “determined.”
(§15) The FIC indexes given in the parentheses of Tables 1 and 2 were calculated by using the following formulas. […]

Candida albicans FP578 = experiment: Antimicrobial test 1 (agar plate MIC), organism b
Description: as §11
b: Candida albicans FP578
as §12, §13, §14
as §8, with “A-E” for “A and F to K”, “medium (for test organisms a-f) or Mueller-Hinton medium (for test organism g),” for “medium,”, “a-g” for “a and d”, “under the conditions given below, and the” for “at 30° C. for 48 hours. The”, “determined. […]” for “determined.”
as §15

Candida albicans FP580 [3] = experiment: Antimicrobial test 1 (agar plate MIC), organism d
Description: as §11, §2, §12, §13, §14
as §8, with “A-E” for “A and F to K”, “medium (for test organisms a-f) or Mueller-Hinton medium (for test organism g),” for “medium,”, “a-g” for “a and d”, “under the conditions given below, and the” for “at 30° C. for 48 hours. The”, “determined. […]” for “determined.”
as §15

Candida albicans Yu-1200 [4] = experiment: Antimicrobial test 1 (agar plate MIC), organism a
Description: as §11, §10, §12, §13, §14
as §8, with “A-E” for “A and F to K”, “medium (for test organisms a-f) or Mueller-Hinton medium (for test organism g),” for “medium,”, “a-g” for “a and d”, “under the conditions given below, and the” for “at 30° C. for 48 hours. The”, “determined. […]” for “determined.”
as §15

Candida albicans FP581 = experiment: Antimicrobial test 1 (agar plate MIC), organism e
Description: as §11
e: Candida albicans FP581
as §12, §13, §14
as §8, with “A-E” for “A and F to K”, “medium (for test organisms a-f) or Mueller-Hinton medium (for test organism g),” for “medium,”, “a-g” for “a and d”, “under the conditions given below, and the” for “at 30° C. for 48 hours. The”, “determined. […]” for “determined.”
as §15

[5] = system: Aspergillus oryzae IFO 5239; experiment: Antimicrobial test 1 (agar plate MIC), organism f; conditions: IFO5239, 168 h
Description: as §11
f: Aspergillus oryzae IFO 5239
as §12, §13, §14
as §8, with “A-E” for “A and F to K”, “medium (for test organisms a-f) or Mueller-Hinton medium (for test organism g),” for “medium,”, “a-g” for “a and d”, “under the conditions given below, and the” for “at 30° C. for 48 hours. The”, “determined. […]” for “determined.”
as §15

[6] = system: Staphylococcus epidermidis 91; experiment: Antimicrobial test 1 (agar plate MIC), organism g
Description: as §11
g: Staphylococcus epidermidis 91
as §12, §13, §14
as §8, with “A-E” for “A and F to K”, “medium (for test organisms a-f) or Mueller-Hinton medium (for test organism g),” for “medium,”, “a-g” for “a and d”, “under the conditions given below, and the” for “at 30° C. for 48 hours. The”, “determined. […]” for “determined.”
as §15

Clc1ccc(COC(Cn2ccnc2)c2ccc(Cl)cc2Cl)c(Cl)c1 (stereo not shown) [Composition F, 1-[2-(2,4-dichlorophenyl)-2-[(2,4-dichlorophenyl)methoxy]ethyl]-1H-imidazole]
MIC (Candida albicans FP580 [1]; Candida albicans, FP580, 48 h): 12.5 µg/mL (≈ 30 µM) | MIC (Candida albicans Yu-1200 [2]; Candida albicans, YU1200, 48 h): 6.25 µg/mL (≈ 15 µM)

Clc1ccc(COC(Cn2ccnc2)c2ccc(Cl)cc2Cl)cc1 (stereo not shown) [Composition G, 1-[2-[(4-chlorophenyl)methoxy]-2-(2,4-dichlorophenyl)ethyl]-1H-imidazole]
MIC (Candida albicans FP580 [1]; Candida albicans, FP580, 48 h): 6.25 µg/mL (≈ 16.4 µM) | MIC (Candida albicans Yu-1200 [2]; Candida albicans, YU1200, 48 h): 6.25 µg/mL (≈ 16.4 µM)

O=[N+]([O-])c1c(Cl)cccc1-c1c[nH]cc1Cl [Composition A, 3-(2-nitro-3-chlorophenyl)-4-chloropyrrole]
MIC (Candida albicans FP579; Candida albicans FP579, Sabouraud agar, 37° C., 24 hours, read-out: MIC): 25 µg/mL (≈ 97.2 µM) | MIC (Candida albicans FP578; Candida albicans FP578, Sabouraud agar, 37° C., 24 hours, read-out: MIC): 3.13 µg/mL (≈ 12.2 µM) | MIC (Candida albicans FP580 [3]; Candida albicans FP580, Sabouraud agar, 37° C., 24 hours, read-out: MIC): 1.56 µg/mL (≈ 6.07 µM) | MIC (Candida albicans Yu-1200 [4]; YU1200, Candida albicans Yu-1200, Sabouraud agar, 37° C., 24 hours, read-out: MIC): 100 µg/mL (≈ 389 µM) | MIC (Candida albicans FP581; Candida albicans FP581, Sabouraud agar, 37° C., 24 hours, read-out: MIC): > 100 µg/mL | MIC (Candida albicans FP580 [1]; Candida albicans FP580, Sabouraud agar, 30° C., 48 hours, read-out: MIC): 0.78 µg/mL (≈ 3.03 µM) | MIC ([5]; Aspergillus oryzae IFO 5239, Sabouraud agar, 30° C., 1 week, read-out: MIC): > 100 µg/mL | MIC (Candida albicans Yu-1200 [2]; YU1200, Candida albicans Yu-1200, Sabouraud agar, 30° C., 48 hours, read-out: MIC): 100 µg/mL (≈ 389 µM) | MIC ([6]; Staphylococcus epidermidis 91, Mueller-Hinton medium, 37° C., 20 hours, read-out: MIC): 100 µg/mL (≈ 389 µM)

Clc1ccccc1C(c1ccccc1)(c1ccccc1)n1ccnc1 [Composition B, 1-[(2-chlorophenyl)diphenylmethyl]-1H-imidazole]
MIC (Candida albicans FP579; Candida albicans, FP579, 24 h): 6.25 µg/mL (≈ 18.1 µM) | MIC (Candida albicans FP578; Candida albicans, FP578, 24 h): 6.25 µg/mL (≈ 18.1 µM) | MIC (Candida albicans FP580 [3]; Candida albicans, FP580, 24 h): 6.25 µg/mL (≈ 18.1 µM) | MIC (Candida albicans Yu-1200 [4]; Candida albicans, YU1200, 24 h): 6.25 µg/mL (≈ 18.1 µM) | MIC (Candida albicans FP581; Candida albicans, FP581, 24 h): 25 µg/mL (≈ 72.5 µM) | MIC ([5]; Aspergillus oryzae): 12.5 µg/mL (≈ 36.2 µM) | MIC ([6]; Staphylococcus epidermidis, 91, 20 h): 25 µg/mL (≈ 72.5 µM)

Clc1ccc(C(Cn2ccnc2)=NOCc2ccc(Cl)cc2Cl)cc1 [Composition H]
MIC (Candida albicans FP580 [1]; Candida albicans FP580, Sabouraud agar, 30° C., 48 hours): 25 µg/mL (≈ 63.3 µM) | MIC (Candida albicans Yu-1200 [2]; Candida albicans Yu-1200, Sabouraud agar, 30° C., 48 hours): 25 µg/mL (≈ 63.3 µM)
